Source: patent US9682131B2, “Compositions and method for utilization of thioretinamide in therapy of degenerative diseases of aging” (priority 2011, dated 2017)

Tests used:
[1] = Carcinogenesis 1987; 8:1559-1562; Proc Soc Exp Biol Med 1989; 191:346-351; cited from earlier work
[2] = system: rats treated with parenteral homocysteine thiolactone; settings: Kazimir et al 2002; cited from earlier work
[3] = system: normal and hypophysectomized animals; settings: Science 1976, 192:372-374, cited from earlier work
[4] = system: transplanted murine mammary adenocarcinoma; settings: Chemotherapy 1977; 23:44-49; cited from earlier work
[5] = system: transplanted malignant neoplasms; settings: animals with transplanted malignant neoplasms; U.S. Pat. No. 4,255,443; cited from earlier work
[6] = system: transplanted neoplasms; settings: cited from earlier work; for growth of transplanted neoplasms in animals: U.S. Pat. No. 4,383,994
[7] = system: retinal cells; settings: through reactive oxygen species generation and increased expression of heme oxygenase; J Cell Physiol 2006; cited from earlier work
[8] = Toxicity in animal tests; settings: 7.5 mg/70 kg/day to 300 mg/70 kg/day
[9] = Toxicity in human trials; settings: 7.5 mg/70 kg/day to 300 mg/70 kg/day

For `CC1=C(/C=C/C(C)=C/C=C/C(C)=C/C(=O)NC2CCSC2=O)C(C)(C)CCC1` (stereo not shown) [thioretinamide, N-homocysteine thiolactonyl retinamide], the “anti-carcinogenic and anti-neoplastic activities” value [1] is given as “have anti-carcinogenic and anti-neoplastic activities” and the anti-atherogenic activity [2] is given as “have anti-atherogenic activity”.

For `N[C@@H](CCS(=O)(=O)O)C(=O)O` [Homocysteic acid], the “growth and release of insulin-like growth factor, IGF-1” value ([3]; hypophysectomized animals treated with thyroxine) is listed as “promotes growth and release of insulin-like growth factor, IGF-1” and the “growth in normal animals” value ([3]; normal animals) is listed as “promotes growth”.

In the case of `CCCCC/C=C/C/C=C/C/C=C/C/C=C/CCCC(=O)NC1CCSC1=O` (stereo not shown) [Arachidonoyl homocysteine thiolactone amide], the “growth of transplanted murine mammary adenocarcinoma” value [4] is given as “decrease the growth”.

For “pyridoxal homocysteine thiolactone enamine”, the “growth of transplanted murine mammary adenocarcinoma” value [4] is given as “decrease the growth”.

In the case of “N-homocysteine thiolactonyl retinamido cobalamin [thioretinaco]”, the “anti-carcinogenic and anti-neoplastic activities” value [1] is listed as “have anti-carcinogenic and anti-neoplastic activities” and the anti-atherogenic activity [2] is listed as “have anti-atherogenic activity”.

For `N[C@H]1CCSC1=O.[O-][Cl+3]([O-])([O-])O` [homocysteine thiolactone perchlorate], the “necrosis within malignant neoplasms” value [5] is given as “increased necrosis within malignant neoplasms”.

For “N-maleamide homocysteine thiolactone amide”, the “growth of transplanted neoplasms in animals” value (“growth … in animals” below) [6] is listed as “suppress the growth” and the “effect of encapsulation within liposomes on anti-neoplastic activity” value ([6]; encapsulated within liposomes, Proc Soc Exp Biol Med 1985, 180:57-61) is listed as “greatly enhances its anti-neoplastic activity”.

In the case of `CC1=C(/C=C/C(C)=C/C=C/C(C)=C/C(=O)Nc2ccc(O)cc2)C(C)(C)CCC1` [fenretinide, N-(4-hydroxyphenyl)-retinamide], the “apoptosis in retinal cells” value [7] is listed as “induces apoptosis”.

With `CC1=C(/C=C/C(C)=C/C=C/C(C)=C/CO)C(C)(C)CCC1` [retinol] the “evidence of toxicity, such as weight loss, nausea, impairment of liver function, headache, or skin lesions” value [8] was “no evidence of toxicity” and the “evidence of toxicity, such as weight loss, nausea, impairment of liver function, headache, or skin lesions” value [9] was “no evidence of toxicity”.

For “rhodium trichloride oxalyl homocysteine thiolactone amide”, the “growth … in animals” value [6] is listed as “suppress the growth”.

In the case of N-maleyl homocysteine thiolactone amide, the “growth … in animals” value [6] is given as “suppress the growth”.
